Converted amounts (≈) assume the structure as drawn. The source made the active and inactive calls. No cut-off for these calls is given here.
Assays:
[1] = target: Serine/threonine-protein kinase ATR (Homo sapiens) (UniProt Q13535); experiment: Inhibition of ATR in human HCT116 cells assessed as decrease in Chk1 phosphorylation at Ser317 residue by measuring decrease in foci formation at 50 nM treated for 1 hr prior to UV-irradiation exposure and measured after 1 hr by Immunofluorescence analysis; type: cell-based; conditions: HCT-116, time 2.0 hrs
[2] = Aqueous solubility of the compound relative to Torin2; type: physicochemical; conditions: buffer
[3] = system: HCT-116; experiment: Growth inhibition of human HCT116 cells measured after 72 hrs by Celltiter-Glo assay; type: functional
[4] = system: HeLa; experiment: Growth inhibition of human HeLa cells measured after 72 hrs by Celltiter-Glo assay; type: functional
[5] = target: Serine/threonine-protein kinase ATR (Homo sapiens) (UniProt Q13535); experiment: Inhibition of ATR in human HCT116 cells assessed as decrease in Chk1 phosphorylation at Ser317 residue at 250 nM treated for 1 hr prior to UV-irradiation exposure and measured after 1 hr by Immunoblot analysis; type: cell-based; conditions: HCT-116, time 2.0 hrs
[6] = target: Serine/threonine-protein kinase mTOR (Homo sapiens) (UniProt P42345); experiment: Inhibition of mTOR in human HCT116 cells assessed as decrease in p70S6K phosphorylation at Thr389 residue at 50 nM treated for 1 hr prior to UV-irradiation exposure and measured after 1 hr by immunoblot analysis; type: cell-based; conditions: HCT-116, time 2.0 hrs
[7] = system: HCT-116; experiment: Inhibition of ATR/mTOR in human HCT116 cells harboring ATM+/-p53+/+ gene allele assessed as premature chromatin condensation at 50 nM treated for 1 hr prior to UV-irradiation exposure and measured after 1 hr by DAPI staining based confocal microscopic method; type: cell-based; conditions: time 2.0 hrs
[8] = Stability in human liver microsomes assessed as proportion of drug metabolized measured after 30 mins; type: ADME, Microsome; conditions: read-out: Drug metabolism
[9] = Stability in mouse liver microsomes assessed as proportion of drug metabolized measured after 30 mins; type: ADME, Microsome; conditions: read-out: Drug metabolism
[10] = Stability in rat liver microsomes assessed as proportion of drug metabolized measured after 30 mins; type: ADME, Microsome; conditions: read-out: Drug metabolism
[11] = Half life in human liver microsome; type: ADME; conditions: liver microsomes
[12] = Half life in mouse liver microsome; type: ADME; conditions: liver microsomes
[13] = Half life in rat liver microsome; type: ADME; conditions: liver microsomes
[14] = Intrinsic clearance in human liver microsome; type: ADME; conditions: liver microsomes, read-out: CLH
[15] = Intrinsic clearance in mouse liver microsome; type: ADME; conditions: liver microsomes, read-out: CLH
[16] = Intrinsic clearance in rat liver microsome; type: ADME; conditions: liver microsomes, read-out: CLH
[17] = target: T1, Serine-protein kinase ATM (Homo sapiens, UniProt Q13315); experiment: Inhibition of ATM in human HCT116 cells assessed as decrease in Chk2 phosphorylation at Thr68 residue by measuring decrease in foci formation at 50 nM treated for 1 hr prior to UV-irradiation exposure and measured after 1 hr by immunofluorescence assay; type: cell-based; conditions: hct-116, 2 h, 0.05 µM
T1 sequence (Q13315 whole entry): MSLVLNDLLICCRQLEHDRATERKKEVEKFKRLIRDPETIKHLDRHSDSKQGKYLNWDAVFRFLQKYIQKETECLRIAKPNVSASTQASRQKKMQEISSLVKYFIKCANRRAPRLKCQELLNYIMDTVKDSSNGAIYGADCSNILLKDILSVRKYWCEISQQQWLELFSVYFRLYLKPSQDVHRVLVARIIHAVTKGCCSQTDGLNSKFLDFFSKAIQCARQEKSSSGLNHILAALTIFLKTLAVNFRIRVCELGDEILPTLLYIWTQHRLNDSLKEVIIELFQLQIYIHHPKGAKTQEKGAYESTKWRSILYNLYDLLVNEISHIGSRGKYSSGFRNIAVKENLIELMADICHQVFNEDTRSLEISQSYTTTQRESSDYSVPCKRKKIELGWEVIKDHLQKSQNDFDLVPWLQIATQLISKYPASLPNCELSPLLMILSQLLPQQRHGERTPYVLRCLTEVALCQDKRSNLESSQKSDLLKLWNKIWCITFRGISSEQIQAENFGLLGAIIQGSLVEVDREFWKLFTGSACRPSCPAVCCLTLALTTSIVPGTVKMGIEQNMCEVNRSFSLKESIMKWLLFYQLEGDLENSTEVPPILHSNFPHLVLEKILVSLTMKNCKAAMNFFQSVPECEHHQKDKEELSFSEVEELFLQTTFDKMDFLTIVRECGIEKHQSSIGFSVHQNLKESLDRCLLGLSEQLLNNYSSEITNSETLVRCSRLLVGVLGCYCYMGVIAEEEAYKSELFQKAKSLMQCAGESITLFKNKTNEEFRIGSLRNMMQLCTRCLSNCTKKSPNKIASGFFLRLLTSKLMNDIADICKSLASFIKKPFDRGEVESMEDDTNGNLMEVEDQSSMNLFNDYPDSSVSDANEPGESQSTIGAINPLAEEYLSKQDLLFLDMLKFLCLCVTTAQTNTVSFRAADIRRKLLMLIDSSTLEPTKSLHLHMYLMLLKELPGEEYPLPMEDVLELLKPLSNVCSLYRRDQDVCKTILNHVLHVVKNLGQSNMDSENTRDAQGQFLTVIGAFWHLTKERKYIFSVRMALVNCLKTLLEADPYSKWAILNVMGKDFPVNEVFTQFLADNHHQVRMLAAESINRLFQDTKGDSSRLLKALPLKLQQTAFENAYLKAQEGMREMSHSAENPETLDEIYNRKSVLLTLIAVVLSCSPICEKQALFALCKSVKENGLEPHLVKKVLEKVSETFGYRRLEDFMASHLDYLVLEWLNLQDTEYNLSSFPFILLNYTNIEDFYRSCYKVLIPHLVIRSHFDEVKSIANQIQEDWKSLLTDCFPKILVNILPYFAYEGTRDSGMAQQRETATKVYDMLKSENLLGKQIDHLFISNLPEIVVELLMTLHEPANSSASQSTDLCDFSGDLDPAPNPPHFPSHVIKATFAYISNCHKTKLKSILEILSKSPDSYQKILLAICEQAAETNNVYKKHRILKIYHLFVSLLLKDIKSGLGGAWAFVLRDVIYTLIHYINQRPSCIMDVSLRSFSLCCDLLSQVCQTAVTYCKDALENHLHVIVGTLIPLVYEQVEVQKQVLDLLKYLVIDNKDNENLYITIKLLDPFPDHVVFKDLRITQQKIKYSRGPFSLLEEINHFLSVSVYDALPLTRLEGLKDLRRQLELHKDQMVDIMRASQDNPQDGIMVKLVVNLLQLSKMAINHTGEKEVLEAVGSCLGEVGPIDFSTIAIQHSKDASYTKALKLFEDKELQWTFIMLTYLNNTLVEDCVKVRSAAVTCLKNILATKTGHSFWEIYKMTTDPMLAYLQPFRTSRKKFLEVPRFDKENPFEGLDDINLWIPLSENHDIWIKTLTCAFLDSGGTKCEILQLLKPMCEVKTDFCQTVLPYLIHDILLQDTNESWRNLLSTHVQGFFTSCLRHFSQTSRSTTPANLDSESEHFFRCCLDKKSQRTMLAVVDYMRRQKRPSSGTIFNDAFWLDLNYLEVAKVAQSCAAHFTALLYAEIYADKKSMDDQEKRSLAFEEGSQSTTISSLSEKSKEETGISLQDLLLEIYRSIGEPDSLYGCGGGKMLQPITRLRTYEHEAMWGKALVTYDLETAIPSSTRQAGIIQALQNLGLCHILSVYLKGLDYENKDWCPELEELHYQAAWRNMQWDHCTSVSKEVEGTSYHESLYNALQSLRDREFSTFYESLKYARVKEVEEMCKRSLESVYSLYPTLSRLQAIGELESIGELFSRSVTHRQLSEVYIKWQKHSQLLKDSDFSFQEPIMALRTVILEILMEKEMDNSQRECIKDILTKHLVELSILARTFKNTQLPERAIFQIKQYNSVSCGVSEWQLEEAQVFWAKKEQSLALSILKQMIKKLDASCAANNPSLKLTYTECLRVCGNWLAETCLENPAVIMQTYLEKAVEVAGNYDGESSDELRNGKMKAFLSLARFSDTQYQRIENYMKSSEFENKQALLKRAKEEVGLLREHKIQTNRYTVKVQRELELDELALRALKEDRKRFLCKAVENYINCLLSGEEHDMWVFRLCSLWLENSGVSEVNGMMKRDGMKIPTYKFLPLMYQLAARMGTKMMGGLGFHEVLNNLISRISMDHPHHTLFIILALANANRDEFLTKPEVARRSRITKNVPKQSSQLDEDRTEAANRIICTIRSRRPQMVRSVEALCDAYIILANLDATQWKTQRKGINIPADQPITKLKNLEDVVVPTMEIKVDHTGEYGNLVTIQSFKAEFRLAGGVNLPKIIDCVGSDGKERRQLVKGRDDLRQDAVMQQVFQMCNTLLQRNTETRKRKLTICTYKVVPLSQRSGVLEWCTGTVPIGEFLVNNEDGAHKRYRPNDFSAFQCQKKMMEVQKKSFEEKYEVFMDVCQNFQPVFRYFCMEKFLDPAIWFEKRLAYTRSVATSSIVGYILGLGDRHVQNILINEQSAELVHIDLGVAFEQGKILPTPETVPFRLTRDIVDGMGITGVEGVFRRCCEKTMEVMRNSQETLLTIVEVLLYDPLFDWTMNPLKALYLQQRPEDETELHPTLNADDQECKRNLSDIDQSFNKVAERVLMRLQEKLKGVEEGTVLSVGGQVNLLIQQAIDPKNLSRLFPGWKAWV

[18] = target: T1, Serine-protein kinase ATM; experiment: Inhibition of ATM in human HCT116 cells assessed as decrease in gammaH2AX phosphorylation at Ser139 residue by measuring decrease in foci formation at 50 nM treated for 1 hr prior to UV-irradiation exposure and measured after 1 hr by immunofluorescence assay; type: cell-based; conditions: hct-116, 2 h, 0.05 µM
[19] = Aqueous solubility of the compound; type: physicochemical
[20] = target: Serine/threonine-protein kinase mTOR (Homo sapiens) (UniProt P42345); experiment: Inhibition of mTOR in human HCT116 cells assessed as decrease in p70S6K phosphorylation at Thr389 residue at 250 nM treated for 1 hr prior to UV-irradiation exposure and measured after 1 hr by immunoblot analysis; type: cell-based; conditions: HCT-116, time 2.0 hrs

Row | SMILES | inhibition [1] | fold change (FC) [2] | GI50 [3] | GI50 [4] | inhibition [5] | inhibition [6] | metabolised at 0.5 h [8] | metabolised at 0.5 h [9] | metabolised at 0.5 h [10] | half-life [11] | half-life [12] | half-life [13] | microsomal CLint [14] | microsomal CLint [15] | microsomal CLint [16] | inhibition (INH) [17] | inhibition (INH) [18] | solubility [19] | inhibition [20] | inhibition [7]
1 | CS(=O)(=O)Nc1ccc(-c2ccc3ncc4ccc(=O)n(-c5cccc(C(F)(F)F)c5)c4c3c2)cn1 |  |  | 1420 nM |  | Active | Active |  |  |  |  |  |  |  |  |  |  |  |  |  | 
2 | O=c1ccc2cnc3ccc(-c4ccc(N5CCOCC5)nc4)cc3c2n1-c1cccc(C(F)(F)F)c1 |  |  | 800 nM | 330 nM | Active | Active |  |  |  |  |  |  |  |  |  |  |  |  |  | 
3 | Nc1cnc(-c2ccc3ncc4ccc(=O)n(-c5cccc(C(F)(F)F)c5)c4c3c2)cn1 | inactive |  | 135 nM | 121 nM | Active | Active |  |  |  |  |  |  |  |  |  |  | Not Active |  | Active | 

Continued by falling GI50 [3], values first:

Row | inhibition [1] | fold change (FC) [2] | GI50 [3] | GI50 [4] | inhibition [5] | inhibition [6] | metabolised at 0.5 h [8] | metabolised at 0.5 h [9] | metabolised at 0.5 h [10] | half-life [11] | half-life [12] | half-life [13] | microsomal CLint [14] | microsomal CLint [15] | microsomal CLint [16] | inhibition (INH) [17] | inhibition (INH) [18] | solubility [19] | inhibition [20] | SMILES | inhibition [7]
4 | Active | 10 | 56 nM | 50.4 nM | 100% | Active | 55% | 11% | 41% | 31 min | 157 min | 42 min | 44 µL/min/mg | 9 µL/min/mg | 33 µL/min/mg | Not Active | Not Active | 22 µM (≈ 11 µg/mL) |  | O=c1ccc2cnc3ccc(-c4ccc(N5CCNCC5)nc4)cc3c2n1-c1cccc(C(F)(F)F)c1 | Active
5 | Active |  | 32.2 nM | 98 nM |  |  |  |  |  |  |  |  |  |  |  |  |  |  |  | Nc1ccc(-c2ccc3ncc4ccc(=O)n(-c5cccc(C(F)(F)F)c5)c4c3c2)cn1 | Active
